Experiments:
Assay type in all cases: in vivo
[1] = test system: barnyardgrass (Echinochloa crus-galli); test: Test B flooded paddy test; settings: Echinochloa crus-galli, 360 h, Flood, 250 g ai/ha; visually evaluated after 13 to 15 d; read-out: Plant response rating, Barnyardgrass (0 to 100 scale where 0 is no effect and 100 is complete control)
Procedure, shortened: (§1)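 Rating scale 0–100 (visual, vs untreated controls) after a 13–15 d greenhouse period; application to the flood layer, 3 cm above soil and maintained; plants at 2-leaf stage when treated.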

rice (Oryra sativa) = test: Test B flooded paddy test; settings: Oryza sativa, 360 h, Flood, 250 g ai/ha; visually evaluated after 13 to 15 d; read-out: Plant response rating, Rice (0 to 100 scale where 0 is no effect and 100 is complete control)
Procedure, shortened: as §1

[2] = test system: ducksalad (Heteranthera limosa); test: Test B flooded paddy test; settings: Heteranthera limosa, 360 h, Flood, 250 g ai/ha; visually evaluated after 13 to 15 d; read-out: Plant response rating, Ducksalad (0 to 100 scale where 0 is no effect and 100 is complete control)
Procedure, shortened: as §1

[3] = test system: sedge, umbrella (small-flower umbrella sedge, Cyperus difformis); test: Test B flooded paddy test; settings: Cyperus difformis, 360 h, Flood, 250 g ai/ha; visually evaluated after 13 to 15 d; read-out: Plant response rating, Sedge, Umbrella (0 to 100 scale where 0 is no effect and 100 is complete control)
Procedure, shortened: as §1

[4] = test system: giant foxtail (Setaria faberii); test: Test A postemergence; settings: Setaria faberi, post-emergence, 240 h, Postemergence
Procedure, shortened: (§2)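 Visual injury scores from 0, no effect, to 100, complete control, were assigned versus untreated controls roughly 10 d after treatment in the greenhouse. Test chemicals, formulated with surfactant in a non-phytotoxic solvent, were applied to planted seeds as a preemergence soil spray or postemergence to one- to two-leaf plants 2 to 10 cm tall, in loam–sand soil.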

[5] = test system: wheat (Triticum aestivum); test: Test A postemergence; settings: Triticum aestivum, post-emergence, 240 h, Postemergence
Procedure, shortened: as §2

[6] = test system: pigweed (Amaranthus retroflexus); test: Test A postemergence; settings: Amaranthus retroflexus, post-emergence, 240 h, Postemergence
Procedure, shortened: as §2

Kochia (Kochia scoparia) [7] = test: Test A postemergence; settings: Bassia scoparia, post-emergence, 240 h, Postemergence
Procedure, shortened: as §2

[8] = test system: barnyardgrass (Echinochloa crus-galli); test: Test A postemergence; settings: Echinochloa crus-galli, post-emergence, 240 h, Postemergence
Procedure, shortened: as §2

corn (Zea mays) = test: Test A postemergence; settings: Zea mays, post-emergence, 240 h, Postemergence
Procedure, shortened: as §2

[9] = test system: ragweed (common ragweed, Ambrosia elatior); test: Test A postemergence; settings: Ambrosia artemisiifolia, post-emergence, 240 h, Postemergence
Procedure, shortened: as §2

[10] = test system: Galium (catchweed bedstraw, Galium aparine); test: Test A postemergence; settings: Galium, post-emergence, 240 h, Postemergence
Procedure, shortened: as §2

[11] = test system: blackgrass (Alopecurus myosuroides); test: Test A postemergence; settings: Alopecurus myosuroides, post-emergence, 240 h, Postemergence
Procedure, shortened: as §2

[12] = test system: ryegrass, Italian (Italian ryegrass, Lolium multiflorum); test: Test A postemergence; settings: Lolium multiflorum, post-emergence, 240 h, Postemergence
Procedure, shortened: as §2

[13] = test system: giant foxtail (Setaria faberii); test: Test A preemergence; settings: Setaria faberi, pre-emergence, 240 h, Preemergence
Procedure, shortened: as §2

[14] = test system: pigweed (Amaranthus retroflexus); test: Test A preemergence; settings: Amaranthus retroflexus, pre-emergence, 240 h, Preemergence
Kochia (Kochia scoparia) [15] = test: Test A preemergence; settings: Bassia scoparia, pre-emergence, 240 h, Preemergence
Procedure, shortened: as §2

[16] = test system: barnyardgrass (Echinochloa crus-galli); test: Test A preemergence; settings: Echinochloa crus-galli, pre-emergence, 240 h, Preemergence
Procedure, shortened: as §2

[17] = test system: ragweed (common ragweed, Ambrosia elatior); test: Test A preemergence; settings: Ambrosia artemisiifolia, pre-emergence, 240 h, Preemergence
Procedure, shortened: as §2

[18] = test system: ryegrass, Italian (Italian ryegrass, Lolium multiflorum); test: Test A preemergence; settings: Lolium multiflorum, pre-emergence, 240 h, Preemergence
Procedure, shortened: as §2

Cc1ccc([C@H]2CN(C)C(=O)[C@@H]2C(=O)Nc2ccc(F)nc2F)cc1 [Compound 1402]
pest or weed control at 250 g/ha [1]: 90% | pest or weed control at 250 g/ha (rice (Oryra sativa)): 0% | pest or weed control at 250 g/ha [2]: 95% | pest or weed control at 250 g/ha [3]: 0% | pest or weed control at 31 g/ha ([4]; 31 g ai/ha, 0 is no effect, 100 is complete control, read-out: Foxtail, Giant plant response rating (0 to 100 scale)): 50% | pest or weed control at 125 g/ha ([4]; 125 g ai/ha, visual injury after approx. 10 d, 0 to 100 scale, 0 no effect, 100 complete control, read-out: Plant response rating, Foxtail, Giant): 90% | plant injury at 31 g/ha ([5]; 31 g ai/ha, 0 is no effect, 100 is complete control, read-out: Wheat plant response rating (0 to 100 scale)): 20% | plant injury at 125 g/ha ([5]; 125 g ai/ha, visual injury after approx. 10 d, 0 to 100 scale, 0 no effect, 100 complete control, read-out: Plant response rating, Wheat): 40% | pest or weed control at 31 g/ha ([6]; 31 g ai/ha, 0 is no effect, 100 is complete control, read-out: Pigweed plant response rating (0 to 100 scale)): 0% | pest or weed control at 125 g/ha ([6]; 125 g ai/ha, visual injury after approx. 10 d, 0 to 100 scale, 0 no effect, 100 complete control, read-out: Plant response rating, Pigweed): 0% | pest or weed control at 31 g/ha (Kochia (Kochia scoparia) [7]; 31 g ai/ha, 0 is no effect, 100 is complete control, read-out: Kochia plant response rating (0 to 100 scale)): 30% | pest or weed control at 125 g/ha (Kochia (Kochia scoparia) [7]; 125 g ai/ha, visual injury after approx. 10 d, 0 to 100 scale, 0 no effect, 100 complete control, read-out: Plant response rating, Kochia): 70% | pest or weed control at 31 g/ha ([8]; 31 g ai/ha, 0 is no effect, 100 is complete control, read-out: Barnyardgrass plant response rating (0 to 100 scale)): 80% | pest or weed control at 125 g/ha ([8]; 125 g ai/ha, visual injury after approx. 10 d, 0 to 100 scale, 0 no effect, 100 complete control, read-out: Plant response rating, Barnyardgrass): 90% | plant injury at 31 g/ha (corn (Zea mays); 31 g ai/ha, 0 is no effect, 100 is complete control, read-out: Corn plant response rating (0 to 100 scale)): 0% | Corn plant response rating (crop injury, 0 = no effect, 100 = complete kill) at 125 g/ha (corn (Zea mays); 125 g ai/ha, visual injury after approx. 10 d, 0 to 100 scale, 0 no effect, 100 complete control): 0% | pest or weed control at 31 g/ha ([9]; 31 g ai/ha, 0 is no effect, 100 is complete control, read-out: Ragweed plant response rating (0 to 100 scale)): 0% | pest or weed control at 125 g/ha ([9]; 125 g ai/ha, visual injury after approx. 10 d, 0 to 100 scale, 0 no effect, 100 complete control, read-out: Plant response rating, Ragweed): 20% | pest or weed control at 31 g/ha ([10]; 31 g ai/ha, 0 is no effect, 100 is complete control, read-out: Galium plant response rating (0 to 100 scale)): 60% | pest or weed control at 125 g/ha ([10]; 125 g ai/ha, visual injury after approx. 10 d, 0 to 100 scale, 0 no effect, 100 complete control, read-out: Plant response rating, Galium): 70% | pest or weed control at 31 g/ha ([11]; 31 g ai/ha, 0 is no effect, 100 is complete control, read-out: Blackgrass plant response rating (0 to 100 scale)): 0% | pest or weed control at 125 g/ha ([11]; 125 g ai/ha, visual injury after approx. 10 d, 0 to 100 scale, 0 no effect, 100 complete control, read-out: Plant response rating, Blackgrass): 50% | pest or weed control at 31 g/ha ([12]; 31 g ai/ha, 0 is no effect, 100 is complete control, read-out: Ryegrass, Italian plant response rating (0 to 100 scale)): 0% | pest or weed control at 125 g/ha ([12]; 125 g ai/ha, visual injury after approx. 10 d, 0 to 100 scale, 0 no effect, 100 complete control, read-out: Plant response rating, Ryegrass, Italian): 0% | pest or weed control at 31 g/ha ([13]; 31 g ai/ha, 0 to 100 scale where 0 is no effect and 100 is complete control, read-out: Foxtail, Giant plant response rating): 100% | pest or weed control at 125 g/ha ([13]; 125 g ai/ha, 0 to 100 scale (0 no effect, 100 complete control), read-out: Plant response rating, Foxtail, Giant): 100% | pest or weed control at 31 g/ha ([14]; 31 g ai/ha, 0 to 100 scale where 0 is no effect and 100 is complete control, read-out: Pigweed plant response rating): 20% | pest or weed control at 125 g/ha ([14]; 125 g ai/ha, 0 to 100 scale (0 no effect, 100 complete control), read-out: Plant response rating, Pigweed): 90% | pest or weed control at 31 g/ha (Kochia (Kochia scoparia) [15]; 31 g ai/ha, 0 to 100 scale where 0 is no effect and 100 is complete control, read-out: Kochia plant response rating): 20% | pest or weed control at 125 g/ha (Kochia (Kochia scoparia) [15]; 125 g ai/ha, 0 to 100 scale (0 no effect, 100 complete control), read-out: Plant response rating, Kochia): 80% | pest or weed control at 31 g/ha ([16]; 31 g ai/ha, 0 to 100 scale where 0 is no effect and 100 is complete control, read-out: Barnyardgrass plant response rating): 100% | pest or weed control at 125 g/ha ([16]; 125 g ai/ha, 0 to 100 scale (0 no effect, 100 complete control), read-out: Plant response rating, Barnyardgrass): 90% | pest or weed control at 31 g/ha ([17]; 31 g ai/ha, 0 to 100 scale where 0 is no effect and 100 is complete control, read-out: Ragweed plant response rating): 30% | pest or weed control at 125 g/ha ([17]; 125 g ai/ha, 0 to 100 scale (0 no effect, 100 complete control), read-out: Plant response rating, Ragweed): 0% | pest or weed control at 31 g/ha ([18]; 31 g ai/ha, 0 to 100 scale where 0 is no effect and 100 is complete control, read-out: Ryegrass, Italian plant response rating): 0% | pest or weed control at 125 g/ha ([18]; 125 g ai/ha, 0 to 100 scale (0 no effect, 100 complete control), read-out: Plant response rating, Ryegrass, Italian): 0%
